Laboratory results taken from patent publication US20250129021A1, “SMALL MOLECULE PROTEIN SYNTHESIS MODULATORS” (Interdict Bio, Inc., priority 2023, published 2025).

Tests used:
Format in all cases: biochemical
CCND1 = assay: In vitro transcription-translation (IVTT) assay, CCND1 reporter; conditions: IVTT assay, HeLa S3 lysate, sfGFP/mCherry ratio
Procedure, shortened: (§1)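 Reporter: mCherry, P2A, then 3×FLAG-target peptide-sfGFP fusion, IRES-initiated; HeLa S3 lysate IVTT; cpd dilutions 30 μM−0.1 μM half-log in 100% DMSO (dilution-plate conc); DNA added last; 2 h, 30° C; PBS quench.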

MCL-1 = assay: In vitro transcription-translation (IVTT) assay, MCL-1 reporter; conditions: IVTT assay, HeLa S3 lysate, sfGFP/mCherry ratio; read-out: MCL1 IC50
Procedure, shortened: as §1

CCNTB1 = assay: In vitro transcription-translation (IVTT) assay, CCNTB1 reporter; conditions: HeLa S3 lysate, sfGFP/mCherry ratio
Method: In vitro transcription-translation assay setup: Each assay includes a master mix containing lysate and shared components, a 96-well plate containing compound titrations for testing, a 96-well DNA plate with reporter constructs to be tested, 96-well skirted PCR plates, and 96-well flat-bottom, black, fluorescent assay plates. Reaction materials setup: (A) Master mix—15 mL conical tube (3 mL of HeLa S3 Lysate described above; 0.6 mL of ThermoFisher Accessory Proteins (#88882); 1.2 ml of ThermoFisher Reaction Mix (#88882); 0.54 mL of nuclease-free Water); (B) 96-Well Master Mix+Compound Plate (Half-log dilutions (30 μM−0.1 μM) of 4 compounds of interest are prepared in 100% DMSO); 96-Well DNA Plate (Five DNA constructs are plated into single columns within the plate. Row 1 of the column contains nuclease free H2O, all other wells contain 110 ng/μL plasmid DNA). Reactions are started by mixing 155 μL of master mix and 3.5 μL of compound serial dilutions, then 9.1 μL of master mix+compound mixture is aliquoted across 5 96-well plates. Reactions begin with final addition of 2 μL of DNA for a 11.1 μL reaction volume in each well. The entire plate is sealed, and incubated for 2 hrs at 30° C. After 2 hrs, quench the assay using 45 μL of PBS, and transfer 50 μL to a flat-bottom black microplate Quantify the sfGFP and mCherry signals from each well on each plate, taking 3 reads of each plate, and perform data analysis below.
In vitro transcription-translation assay data analysis: Each plate is read three times in channels for both sfGFP and mCherry signals. The average signal across these 3 reads is then calculated for further analysis. Control wells containing no DNA reporter are subtracted from reporter wells in the same column to remove auto-fluorescence of the lysate. Then, the ratio of sfGFP/mCherry is calculated per well, and these ratios are averaged across the triplicate experiments on the same plate. Finally, the ratio of each titration concentration is normalized to the no drug control to create the normalized stalling metric. The error on this measurement is determined by propagating error through the averaging and normalization steps. Values are plotted and fit for IC50 determination for each test sequence and titration of compound.

MYC = assay: In vitro transcription-translation (IVTT) assay, MYC reporter; conditions: IVTT assay, HeLa S3 lysate, MYC reporter, normalized sfGFP/mCherry ratio; half-log dilutions 30 μM-0.1 μM, 2 hrs at 30° C.
Procedure, shortened: as §1

| SMILES | IC50 (CCND1) [µM] | IC50 (MCL-1) [µM] | IC50 (CCNTB1) [µM] | IC50 (MYC) [µM] |
| --- | --- | --- | --- | --- |
| O=C(NCc1ccc2c(c1)CCNC2)O[C@@H]1[C@@H](O)CN[C@@H]1Cc1ccc(-c2ccc3c(c2)CC(F)(F)C3)cc1 [V192060, (2R,3S,4S)-2-{[4-(2,2-difluoro-1,3-dihydroinden-5-yl)phenyl]methyl}-4-hydroxypyrrolidin-3-yl N-(1,2,3,4-tetrahydroisoquinolin-6-ylmethyl)carbamate] | 20 to 30 | < 10 | < 10 | < 10 |
| O=C(NCC[C@@H]1CCCN1)O[C@@H]1[C@@H](O)CN[C@@H]1Cc1ccc(-c2ccc(Cl)s2)cc1 [V191891, (2R,3S,4S)-2-{[4-(5-chlorothiophen-2-yl)phenyl]methyl}-4-hydroxypyrrolidin-3-yl N-{2-[(2S)-pyrrolidin-2-yl]ethyl}carbamate] | 10 to 20 | < 10 | < 10 | < 10 |
| O=C(NCc1cccc(F)c1)O[C@@H]1[C@@H](O)CN[C@@H]1Cc1ccc(-c2cn3ccccc3n2)cc1 [V192139] | < 10 | < 10 | < 10 | < 10 |
| O=C(NCc1ccc2c(c1)CCNC2)O[C@@H]1[C@@H](O)CN[C@@H]1Cc1ccc(-c2cncs2)cc1 [V192109, (2R,3S,4S)-4-hydroxy-2-(4-(thiazol-5-yl)benzyl)pyrrolidin-3-yl ((1,2,3,4-tetrahydroisoquinolin-6-yl)methyl)carbamate] | < 10 | < 10 | < 10 | < 10 |
| O=C(NCc1ccc2c(c1)CCNC2)O[C@@H]1[C@@H](O)CN[C@@H]1Cc1ccc(-c2ccc(S(F)(F)(F)(F)F)cc2)cc1 [V192059, (2R,3S,4S)-4-hydroxy-2-{[4′-(pentafluoro-lambda6-sulfanyl)-[1,1′-biphenyl]-4-yl]methyl}pyrrolidin-3-yl N-(1,2,3,4-tetrahydroisoquinolin-6-ylmethyl)carbamate] | > 30 | > 30 | > 30 | > 30 |
| O=C(NCc1cccc(F)c1)O[C@@H]1[C@@H](O)CN[C@@H]1Cc1ccc(-c2cnoc2)cc1 [V190543, (2R,3S,4S)-4-hydroxy-2-{[4-(1,2-oxazol-4-yl)phenyl]methyl}pyrrolidin-3-yl N-[(3-fluorophenyl)methyl]carbamate] | > 30 | > 30 | 20 to 30 | < 10 |
| O=C(NCCC1CCNCC1)O[C@@H]1[C@@H](O)CN[C@@H]1Cc1ccc(-c2cncs2)cc1 [V192112, (2R,3S,4S)-4-hydroxy-2-{[4-(1,3-thiazol-5-yl)phenyl]methyl}pyrrolidin-3-yl N-[2-(piperidin-4-yl)ethyl]carbamate] | < 10 | < 10 | < 10 | < 10 |
| COc1ccc(C[C@H]2NC[C@H](O)[C@H]2OC(=O)NCC[C@@]2(C)CCCN2)cc1 [V192041, (2R,3S,4S)-4-hydroxy-2-(4-methoxybenzyl)pyrrolidin-3-yl (2-((R)-2-methylpyrrolidin-2-yl)ethyl)carbamate] | 10 to 20 | < 10 | < 10 | < 10 |
| COc1ccc(C[C@H]2NC[C@H](O)[C@H]2OC(=O)NCc2ccnc(N3CC4(CCC4)C3)c2)cc1 [V192068, (2R,3S,4S)-4-hydroxy-2-[(4-methoxyphenyl)methyl]pyrrolidin-3-yl N-[(2-{2-azaspiro[3.3]heptan-2-yl}pyridin-4-yl)methyl]carbamate] | 10 to 20 | < 10 | < 10 | < 10 |
| COc1ccc(C[C@H]2NC[C@H](O)[C@H]2OC(=O)NCc2ccnc(N3CC(O)C3)c2)cc1 [V192067, (2R,3S,4S)-4-hydroxy-2-(4-methoxybenzyl)pyrrolidin-3-yl ((2-(3-hydroxyazetidin-1-yl)pyridin-4-yl)methyl)carbamate] | < 10 | < 10 | 10 to 20 | < 10 |
| COc1ccc(C[C@H]2NC[C@H](O)[C@H]2OC(=O)NCc2ccnc(N3CCC3)n2)cc1 [V192073, (2R,3S,4S)-4-hydroxy-2-[(4-methoxyphenyl)methyl]pyrrolidin-3-yl N-{[2-(azetidin-1-yl)pyrimidin-4-yl]methyl}carbamate] | < 10 | < 10 | < 10 | < 10 |
| COc1ccc(C[C@H]2NC[C@H](O)[C@H]2OC(=O)NCc2ccc(C3(N)CC3)cc2)cc1 [V192069, (2R,3S,4S)-4-hydroxy-2-[(4-methoxyphenyl)methyl]pyrrolidin-3-yl N-{[4-(1-aminocyclopropyl)phenyl]methyl}carbamate] | < 10 | < 10 | < 10 | < 10 |
| O=C(NCc1ccc2c(c1)CCNC2)O[C@@H]1[C@@H](O)CN[C@@H]1Cc1ccc(-c2ccc(C(F)(F)F)cc2)cc1 [V192058, (2R,3S,4S)-4-hydroxy-2-{[4′-(trifluoromethyl)-[1,1′-biphenyl]-4-yl]methyl}pyrrolidin-3-yl N-(1,2,3,4-tetrahydroisoquinolin-6-ylmethyl)carbamate] | > 30 | > 30 | 20 to 30 | > 30 |
| COc1ccc(C[C@H]2NC[C@H](O)[C@H]2OC(=O)NCC[C@H]2CCCNC2)cc1 [V192046, (2R,3S,4S)-4-hydroxy-2-[(4-methoxyphenyl)methyl]pyrrolidin-3-yl N-{2-[(3R)-piperidin-3-yl]ethyl}carbamate] | 10 to 20 | < 10 | < 10 | < 10 |
| COc1ccc(C[C@H]2NC[C@H](O)[C@H]2OC(=O)NCC[C@H]2CCCN2C)cc1 [V192042, (2R,3S,4S)-4-hydroxy-2-[(4-methoxyphenyl)methyl]pyrrolidin-3-yl N-{2-[(2R)-1-methylpyrrolidin-2-yl]ethyl}carbamate] | > 30 | > 30 | 20 to 30 | > 30 |
| O=C(NCc1cccc(F)c1)O[C@@H]1[C@@H](O)CN[C@@H]1Cc1ccc(-c2ccc(Cl)s2)cc1 [V192156, (2R,3S,4S)-2-{[4-(5-chlorothiophen-2-yl)phenyl]methyl}-4-hydroxypyrrolidin-3-yl N-[(3-fluorophenyl)methyl]carbamate] | > 30 | > 30 | > 30 | > 30 |
| O=C(NCc1ccnc(N2CCC2)c1)O[C@@H]1[C@@H](O)CN[C@@H]1Cc1ccc(-c2ccc(C(F)(F)F)cc2)cc1 [V192071, (2R,3S,4S)-4-hydroxy-2-((4′-(trifluoromethyl)-[1,1′-biphenyl]-4-yl)methyl)pyrrolidin-3-yl ((2-(azetidin-1-yl)pyridin-4-yl)methyl)carbamate] | > 30 | 20 to 30 | 20 to 30 | 20 to 30 |
| O=C(NCc1cccc(F)c1)O[C@@H]1[C@@H](O)CN[C@@H]1Cc1ccc(-c2ccc(C(F)(F)F)cc2)cc1 [V192083, (2R,3S,4S)-4-hydroxy-2-{[4′-(trifluoromethyl)-[1,1′-biphenyl]-4-yl]methyl}pyrrolidin-3-yl N-[(3-fluorophenyl)methyl]carbamate] | > 30 | > 30 | > 30 | > 30 |
